Reference: patent US8268854B2, “Aza-beta-carbolines and methods of using same” (The UWM Research Foundation, Inc., priority 2008, dated 2012)
Where a name gives a salt, the structure may show the parent alone.

Key:
Experiment in all cases: PDSP primary radioligand binding assay
Serotonin receptor 5ht1b = target: T1, Serotonin receptor 5ht1b (Homo sapiens, UniProt P28222); details: compound 10 μM
T1 construct: expressed in transfected cells
Protocol: (§1) Primary and secondary radioligand binding assays are performed. In general, the primary assay is run at very high ligand (compound) concentration as a broad screen to determine whether a compound binds to a particular receptor. If greater than 50% inhibition at 10 μM (high concentration of compound) at a particular receptor is determined, a secondary assay is performed on that receptor. Data from the secondary assay is the binding affinity (Ki value).
(§2) A solution of the compound to be tested is prepared as a 1 mg/ml stock in Standard Binding Buffer or dimethyl sulfoxide (DMSO) according to its solubility. A similar stock of a reference compound (positive control) is also prepared.
(§3) Radioligand (radioligands are presented in Table 39) is diluted to five times the assay concentration (assay concentrations are presented in Table 39) in Standard Binding Buffer. Typically, the assay concentration of radioligand is a value between one half the KD and the KD of a particular radioligand at its target. Aliquots (50 μL) of radioligand are dispensed into the wells of a 96-well plate (see FIG. 11) containing 100 μL of Standard Binding Buffer (Table 40). Then, duplicate 50 μL aliquots of the test and reference compound dilutions are added (see FIG. 11). According to FIG. 11, increasing concentrations (from left to right) of reference or test compound (diluted in buffer) are added (50 μL aliquots, in duplicate) from 5× stock solutions to wells containing 50 μL of 5× radioligand (fixed concentration, prepared in buffer) and 100 μL of buffer. Finally, 50 μL of receptor-containing membrane homogenate (5× suspension in buffer) are added to achieve a final assay volume of 250 μL. Final concentrations of reference or test compound are listed above the columns in FIG. 11.
(§4) Finally, crude membrane fractions of cells expressing recombinant target (prepared from 10 cm plates by harvesting phosphate buffered saline (PBS)-rinsed monolayers, resuspending and lysing in chilled, hypotonic 50 mM Tris-HCl, pH 7.4, centrifuging at 20,000×g, decanting the supernatant and storing at −80° C.; typically, one 10 cm plate provides sufficient material for 24 wells) are resuspended in 3 mL of chilled Standard Binding Buffer and homogenized by several passages through a 26 gauge needle, and then 50 μL are dispensed into each well.
(§5) The 250 μL reactions are incubated at room temperature and shielded from light (to prevent photolysis of light-sensitive ligands) for 1.5 hours, then harvested by rapid filtration onto Whatman GF/B glass fiber filters pre-soaked with 0.3% polyethyleneimine using a 96-well Brandel harvester. Four rapid 500 μL washes are performed with chilled Standard Binding Buffer to reduce non-specific binding. Filters are placed in 6 mL scintillation tubes and allowed to dry overnight. The next day, 4 mL of EcoScint scintillation cocktail (National Diagnostics) are added to each tube. The tubes are capped, labeled, and counted by liquid scintillation counting. For higher throughput assays, bound radioactivity is harvested onto 0.3% polyethyleneimine-treated, 96-well filter mats using a 96-well Filtermate harvester. The filter mats are dried, then scintillant is melted onto the filters, and the radioactivity retained on the filters is counted in a Microbeta scintillation counter.
(§6) Raw data (dpm) representing total radioligand binding (i.e., specific+non-specific binding) are plotted as a function of the logarithm of the molar concentration of the competitor (i.e., test or reference compound). […]

SERT transporter = target: T2, SERT transporter (Homo sapiens, UniProt P31645); details: compound 10 μM, n=4, read-out: mean percentage inhibition, SERT transporter
T2 construct: expressed in transfected cells
T2 sequence (P31645 whole entry): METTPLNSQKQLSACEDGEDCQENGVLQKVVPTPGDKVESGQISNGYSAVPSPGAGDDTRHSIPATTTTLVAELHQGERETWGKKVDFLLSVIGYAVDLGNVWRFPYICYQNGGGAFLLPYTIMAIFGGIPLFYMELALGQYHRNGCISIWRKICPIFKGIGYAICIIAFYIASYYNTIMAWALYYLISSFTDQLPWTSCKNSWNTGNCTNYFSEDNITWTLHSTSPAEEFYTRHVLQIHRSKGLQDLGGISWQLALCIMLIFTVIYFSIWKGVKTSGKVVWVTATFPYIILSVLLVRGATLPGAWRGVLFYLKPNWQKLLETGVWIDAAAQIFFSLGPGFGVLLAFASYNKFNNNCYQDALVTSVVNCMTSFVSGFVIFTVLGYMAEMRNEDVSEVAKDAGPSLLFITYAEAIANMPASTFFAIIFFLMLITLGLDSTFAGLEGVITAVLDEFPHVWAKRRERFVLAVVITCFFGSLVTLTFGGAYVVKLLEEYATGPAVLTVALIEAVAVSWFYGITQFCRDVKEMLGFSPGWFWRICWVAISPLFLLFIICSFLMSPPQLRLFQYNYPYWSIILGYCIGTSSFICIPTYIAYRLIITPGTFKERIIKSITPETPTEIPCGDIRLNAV
Protocol: as §1, §2, §3, §4, §5, §6

NET transporter = target: T3, NET transporter (Homo sapiens, UniProt P23975); details: compound 10 μM
T3 construct: expressed in transfected cells
T3 sequence (P23975 whole entry): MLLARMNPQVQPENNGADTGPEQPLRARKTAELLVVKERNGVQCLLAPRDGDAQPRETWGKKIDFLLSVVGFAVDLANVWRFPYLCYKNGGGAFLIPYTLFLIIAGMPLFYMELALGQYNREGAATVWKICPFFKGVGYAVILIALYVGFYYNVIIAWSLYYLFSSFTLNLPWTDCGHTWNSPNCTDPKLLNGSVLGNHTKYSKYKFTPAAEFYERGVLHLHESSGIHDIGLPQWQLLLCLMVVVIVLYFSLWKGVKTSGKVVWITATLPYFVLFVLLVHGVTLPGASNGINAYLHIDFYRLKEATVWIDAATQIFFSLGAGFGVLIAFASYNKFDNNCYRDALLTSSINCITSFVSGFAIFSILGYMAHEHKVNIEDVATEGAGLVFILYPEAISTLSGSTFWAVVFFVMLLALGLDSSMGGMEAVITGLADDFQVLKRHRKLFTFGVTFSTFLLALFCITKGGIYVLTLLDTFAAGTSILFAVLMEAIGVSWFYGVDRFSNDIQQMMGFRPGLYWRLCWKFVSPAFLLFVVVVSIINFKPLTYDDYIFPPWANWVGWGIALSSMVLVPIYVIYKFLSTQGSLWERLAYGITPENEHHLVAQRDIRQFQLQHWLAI
Protocol: as §1, §2, §3, §4, §5, §6

T1 sequence (P28222 whole entry): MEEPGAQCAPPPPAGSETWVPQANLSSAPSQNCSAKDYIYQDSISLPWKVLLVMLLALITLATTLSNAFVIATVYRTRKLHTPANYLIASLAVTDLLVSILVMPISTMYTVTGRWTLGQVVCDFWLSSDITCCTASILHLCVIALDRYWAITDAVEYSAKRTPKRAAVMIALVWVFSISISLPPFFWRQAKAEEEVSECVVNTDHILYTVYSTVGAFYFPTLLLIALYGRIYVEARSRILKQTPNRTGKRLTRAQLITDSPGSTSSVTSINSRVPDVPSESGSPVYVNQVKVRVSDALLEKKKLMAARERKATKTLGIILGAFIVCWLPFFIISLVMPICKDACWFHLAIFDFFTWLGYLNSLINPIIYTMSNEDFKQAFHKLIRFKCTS

| SMILES | mean percentage inhibition, Serotonin receptor 5ht1b (Serotonin receptor 5ht1b; n=4, hydrochloride, 10 µM) [%] | inhibition at 10 µM (Serotonin receptor 5ht1b; n=4, read-out: mean percentage inhibition, Serotonin receptor 5ht1b) [%] | inhibition at 10 µM (SERT transporter) [%] | mean percentage inhibition, NET transporter (NET transporter; n=4, hydrochloride, 10 µM) [%] | inhibition at 10 µM (NET transporter; n=4, read-out: mean percentage inhibition, NET transporter) [%] |
| --- | --- | --- | --- | --- | --- |
| CCCOc1cc2c(cn1)[nH]c1ccncc12 [Compound 2, 8-Propoxypyridino[4′,3′-5,4]pyrrolo[3,2-c]pyridine hydrochloride] | 47 | < 50 | 22.1 | – | – |
| CCCOc1cc2c(cn1)[nH]c1cnccc12 [Compound 4, 3-Propoxy pyridino[4′,3′-4,5]pyrrolo[2,3-c]pyridine hydrochloride] | – | – | – | 36.8 | < 50 |
